#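 How tested: cells in 96-well plates exposed to compound for 48 hours at five concentrations. GI50: concentration for 50% inhibition of growth. The concentration for full growth arrest is given as TGI.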
# What was measured:
# Experiment in all cases: growth of human tumour cells (NCI), 48 h
# SNB-19 CNS = tested on: SNB-19 CNS
# SN12C renal = tested on: SN12C renal
# HCT-116 colon = tested on: HCT-116 colon
# BT-549 breast = tested on: BT-549 breast
# MDA-MB-231 breast = tested on: MDA-MB-231 breast
# CCRF-CEM leukemia = tested on: CCRF-CEM leukemia
# NCI-H23 lung = tested on: NCI-H23 lung
# UACC-62 melanoma = tested on: UACC-62 melanoma
# U251 CNS = tested on: U251 CNS
# MALME-3M melanoma = tested on: MALME-3M melanoma
# SR leukemia = tested on: SR leukemia
# IGROV1 ovarian = tested on: IGROV1 ovarian
# SF-295 CNS = tested on: SF-295 CNS
# SF-539 CNS = tested on: SF-539 CNS
# HCT-15 colon = tested on: HCT-15 colon
# K-562 leukemia = tested on: K-562 leukemia
# 786-0 renal = tested on: 786-0 renal
# RXF 393 renal = tested on: RXF 393 renal
# DU-145 prostate = tested on: DU-145 prostate
# PC-3 prostate = tested on: PC-3 prostate
# ACHN renal = tested on: ACHN renal
# HOP-92 NSCLC = tested on: HOP-92 NSCLC
# OVCAR-3 ovarian = tested on: OVCAR-3 ovarian
# SK-MEL-28 melanoma = tested on: SK-MEL-28 melanoma
# COLO 205 colon = tested on: COLO 205 colon
# A498 renal = tested on: A498 renal
# NCI-H522 lung = tested on: NCI-H522 lung
# LOX IMVI melanoma = tested on: LOX IMVI melanoma
# NCI-H226 lung = tested on: NCI-H226 lung
# MDA-MB-468 breast = tested on: MDA-MB-468 breast
# TK-10 renal = tested on: TK-10 renal
# HT29 colon = tested on: HT29 colon
# HL-60(TB) leukemia = tested on: HL-60(TB) leukemia
# SK-OV-3 ovarian = tested on: SK-OV-3 ovarian
# SK-MEL-5 melanoma = tested on: SK-MEL-5 melanoma
# SF-268 CNS = tested on: SF-268 CNS
# UACC-257 melanoma = tested on: UACC-257 melanoma
# UO-31 renal = tested on: UO-31 renal
# SW-620 colon = tested on: SW-620 colon
# OVCAR-8 ovarian = tested on: OVCAR-8 ovarian
# HOP-62 NSCLC = tested on: HOP-62 NSCLC
# M14 melanoma = tested on: M14 melanoma
# A549 NSCLC = tested on: A549 NSCLC
# CAKI-1 renal = tested on: CAKI-1 renal
# SK-MEL-2 melanoma = tested on: SK-MEL-2 melanoma
# OVCAR-5 ovarian = tested on: OVCAR-5 ovarian
# NCI-H460 lung = tested on: NCI-H460 lung
# HCC-2998 colon = tested on: HCC-2998 colon
# MDA-MB-435 = tested on: MDA-MB-435
# T-47D breast = tested on: T-47D breast
# MCF7 breast = tested on: MCF7 breast
# NCI/ADR-RES ovarian = tested on: NCI/ADR-RES ovarian
# HS 578T breast = tested on: HS 578T breast
# RPMI-8226 leukemia = tested on: RPMI-8226 leukemia
# OVCAR-4 ovarian = tested on: OVCAR-4 ovarian
# EKVX NSCLC = tested on: EKVX NSCLC
compound,measurement,setting,value
COc1cc(/C=C/C(=O)c2ccc(S(=O)(=O)NCCNc3nc(Nc4ccc(F)cc4)nc(N(C)C)n3)cc2)cc(OC)c1OC,GI50,SNB-19 CNS,11.2 µM
same,TGI,SNB-19 CNS,23.4 µM
same,GI50,SN12C renal,5.71 µM
same,TGI,SN12C renal,21.5 µM
same,GI50,HCT-116 colon,1770 nM
same,TGI,HCT-116 colon,3.68 µM
same,GI50,BT-549 breast,2250 nM
same,TGI,BT-549 breast,7.52 µM
same,GI50,MDA-MB-231 breast,4.41 µM
same,TGI,MDA-MB-231 breast,21 µM
same,GI50,CCRF-CEM leukemia,3.62 µM
same,TGI,CCRF-CEM leukemia,> 100 µM
same,GI50,NCI-H23 lung,3.03 µM
same,TGI,NCI-H23 lung,10.9 µM
same,GI50,UACC-62 melanoma,8.28 µM
same,TGI,UACC-62 melanoma,21.4 µM
same,GI50,U251 CNS,1810 nM
same,TGI,U251 CNS,3.54 µM
same,GI50,MALME-3M melanoma,11.9 µM
same,TGI,MALME-3M melanoma,25.7 µM
same,GI50,SR leukemia,2420 nM
same,TGI,SR leukemia,7.6 µM
same,GI50,IGROV1 ovarian,16.1 µM
same,TGI,IGROV1 ovarian,31 µM
same,GI50,SF-295 CNS,2160 nM
same,TGI,SF-295 CNS,4.73 µM
same,GI50,SF-539 CNS,1710 nM
same,TGI,SF-539 CNS,3.18 µM
same,GI50,HCT-15 colon,1800 nM
same,TGI,HCT-15 colon,3.44 µM
same,GI50,K-562 leukemia,2730 nM
same,TGI,K-562 leukemia,> 100 µM
same,GI50,786-0 renal,2940 nM
same,TGI,786-0 renal,12 µM
same,GI50,RXF 393 renal,1450 nM
same,TGI,RXF 393 renal,3.12 µM
same,GI50,DU-145 prostate,10.9 µM
same,TGI,DU-145 prostate,34.3 µM
same,GI50,PC-3 prostate,3.22 µM
same,TGI,PC-3 prostate,30.7 µM
same,GI50,ACHN renal,5.13 µM
same,TGI,ACHN renal,19.8 µM
same,GI50,HOP-92 NSCLC,11.5 µM
same,TGI,HOP-92 NSCLC,37.7 µM
same,GI50,OVCAR-3 ovarian,6.18 µM
same,TGI,OVCAR-3 ovarian,26.4 µM
same,GI50,SK-MEL-28 melanoma,6.13 µM
same,TGI,SK-MEL-28 melanoma,19.3 µM
same,GI50,COLO 205 colon,4.78 µM
same,TGI,COLO 205 colon,19.2 µM
same,GI50,A498 renal,11.3 µM
same,TGI,A498 renal,23.8 µM
same,GI50,NCI-H522 lung,6.45 µM
same,TGI,NCI-H522 lung,20.1 µM
same,GI50,LOX IMVI melanoma,1710 nM
same,TGI,LOX IMVI melanoma,3.1 µM
same,GI50,NCI-H226 lung,4.47 µM
same,TGI,NCI-H226 lung,31.9 µM
same,GI50,MDA-MB-468 breast,2000 nM
same,TGI,MDA-MB-468 breast,4.58 µM
same,GI50,TK-10 renal,13.1 µM
same,TGI,TK-10 renal,40.9 µM
same,GI50,HT29 colon,1930 nM
same,TGI,HT29 colon,3.53 µM
same,GI50,HL-60(TB) leukemia,2640 nM
same,TGI,HL-60(TB) leukemia,9.4 µM
same,GI50,SK-OV-3 ovarian,21.8 µM
same,TGI,SK-OV-3 ovarian,58.9 µM
same,GI50,SK-MEL-5 melanoma,3.39 µM
same,TGI,SK-MEL-5 melanoma,12.8 µM
same,GI50,SF-268 CNS,11.7 µM
same,TGI,SF-268 CNS,63.7 µM
same,GI50,UACC-257 melanoma,15.1 µM
same,TGI,UACC-257 melanoma,31.4 µM
same,GI50,UO-31 renal,4.45 µM
same,TGI,UO-31 renal,17 µM
same,GI50,SW-620 colon,1950 nM
same,TGI,SW-620 colon,3.8 µM
same,GI50,OVCAR-8 ovarian,11.1 µM
same,TGI,OVCAR-8 ovarian,34.7 µM
same,GI50,HOP-62 NSCLC,14.1 µM
same,TGI,HOP-62 NSCLC,29 µM
same,GI50,M14 melanoma,3.28 µM
same,TGI,M14 melanoma,11.5 µM
same,GI50,A549 NSCLC,12.2 µM
same,TGI,A549 NSCLC,30.9 µM
same,GI50,CAKI-1 renal,5.2 µM
same,TGI,CAKI-1 renal,35.6 µM
same,GI50,SK-MEL-2 melanoma,13.5 µM
same,TGI,SK-MEL-2 melanoma,28.3 µM
same,GI50,OVCAR-5 ovarian,12.9 µM
same,TGI,OVCAR-5 ovarian,26.8 µM
same,GI50,NCI-H460 lung,5.12 µM
same,TGI,NCI-H460 lung,17.8 µM
same,GI50,HCC-2998 colon,1620 nM
same,TGI,HCC-2998 colon,3000 nM
same,GI50,MDA-MB-435,2800 nM
same,TGI,MDA-MB-435,7.68 µM
same,GI50,T-47D breast,3.48 µM
same,TGI,T-47D breast,51.3 µM
same,GI50,MCF7 breast,1960 nM
same,TGI,MCF7 breast,4.28 µM
same,GI50,NCI/ADR-RES ovarian,3.38 µM
same,TGI,NCI/ADR-RES ovarian,13.4 µM
same,GI50,HS 578T breast,8.24 µM
same,TGI,HS 578T breast,46.7 µM
same,GI50,RPMI-8226 leukemia,2500 nM
same,TGI,RPMI-8226 leukemia,7.69 µM
same,GI50,OVCAR-4 ovarian,8.02 µM
same,TGI,OVCAR-4 ovarian,63.4 µM
same,GI50,EKVX NSCLC,4.85 µM
same,TGI,EKVX NSCLC,16.3 µM
